# Patent US20020061839A1, “Serine peptidase modulators” (priority 1998, published 2002)
# Entries after “also recorded” stand apart in the source; their conditions may differ.
# What was measured:
# Dipeptidyl peptidase II = conditions: DPP II semi-purified from rabbit kidney, pH 5.5, 20 minutes at 37° C.
# Protocol: After incubation during 20 minutes at 37° C., the reaction was stopped by the addition of 10 fold excess sodium-acetate pH 3.6.
# [1] = Side effects in rabbits after intravenous injection; type: in vivo; conditions: single intravenous injection of 0.2 mg/kg
# Protocol: […]. They received standard diet and water ad lib. […] Blood was sampled from the central ear artery. Rats and mice were injected subcutaneously or intraperitoneally.
# [2] = system: human peripheral blood mononuclear cells (PBMC); assay: In vitro cytotoxicity in PBMC, trypan blue exclusion; type: cell-based; conditions: freshly isolated mononuclear cells or phytohemagglutinin stimulated blasts, concentrations up to 100 μM
# Protocol: Peripheral blood mononuclear cells were isolated from buffy coats (obtained from the blood transfusion center of Antwerp). After dilution (¼) in phosphate buffer saline (PBS), cells were layered onto Ficoll-Hypaque density gradient (Pharmacia, Uppsala, Sweden) and centrifuged at room temperature at 550×g during 20 min. The interfaces were collected and washed 3 times in RPMI-1640. Finally the cells were resuspended at 1×10^6 cells/mL in RPMI-1640 containing 10% heat-inactivated foetal calf serum, and antibiotics (penicillin/streptomycin) (Gibco). These freshly isolated cells were used immediately for inhibitor studies or first stimulated with phytohaemagglutinin (Murex diagnostics) at 1 μg/mL during 3 days at 37° C. in a 5% CO2 humidified incubator. Inhibitor (stock solution at −80° C. in phosphate buffer, diluted ex tempore in RPMI-1640) or vehicle alone was added to the cells (5×10^6/test) at different concentrations. After overnight incubation at 37° C., an aliquot was taken for cytotoxicity evaluation by 0.4% trypan blue exclusion. The remaining cells were washed 3 times in PBS and the final cell pellet was solubilised in 200 μL PBS containing 1% v/v Triton X-100 and 100 KIU/mL aprotinin (Bayer) and centrifuged during 10 min at 20000×g. Supernatants were used immediately for enzyme assay and protein determination by the Bradford micro-assay. Specific activities (U/g protein) are compared and the % inhibition is given toward control samples without inhibitor.
# in vitro = conditions: human, plasma
# [3] = Systemic and local toxicity in rats; type: in vivo; conditions: for acute systemic or local toxicity: daily subcutaneous injection of 50 mg/kg (initial dose 100 mg/kg)
# Protocol: They received standard diet and water ad lib. […] Blood was sampled from the central ear artery. Rats and mice were injected subcutaneously or intraperitoneally.
# [4] = Graft acceptance upon alloantigen challenge; type: in vivo, rats; conditions: monotherapy
# Prolyl oligopeptidase = target: T1, Prolyl oligopeptidase (Homo sapiens, UniProt P48147); assay: Inhibition of prolyl oligopeptidase (PO), Z-Gly-Pro-AMC substrate; type: biochemical; conditions: PO from human platelets, 20 min at 37° C.
# T1 construct: Prolyl oligopeptidase was purified from human platelets; from tissue; host or cells: human platelets
# T1 sequence (P48147 1-710): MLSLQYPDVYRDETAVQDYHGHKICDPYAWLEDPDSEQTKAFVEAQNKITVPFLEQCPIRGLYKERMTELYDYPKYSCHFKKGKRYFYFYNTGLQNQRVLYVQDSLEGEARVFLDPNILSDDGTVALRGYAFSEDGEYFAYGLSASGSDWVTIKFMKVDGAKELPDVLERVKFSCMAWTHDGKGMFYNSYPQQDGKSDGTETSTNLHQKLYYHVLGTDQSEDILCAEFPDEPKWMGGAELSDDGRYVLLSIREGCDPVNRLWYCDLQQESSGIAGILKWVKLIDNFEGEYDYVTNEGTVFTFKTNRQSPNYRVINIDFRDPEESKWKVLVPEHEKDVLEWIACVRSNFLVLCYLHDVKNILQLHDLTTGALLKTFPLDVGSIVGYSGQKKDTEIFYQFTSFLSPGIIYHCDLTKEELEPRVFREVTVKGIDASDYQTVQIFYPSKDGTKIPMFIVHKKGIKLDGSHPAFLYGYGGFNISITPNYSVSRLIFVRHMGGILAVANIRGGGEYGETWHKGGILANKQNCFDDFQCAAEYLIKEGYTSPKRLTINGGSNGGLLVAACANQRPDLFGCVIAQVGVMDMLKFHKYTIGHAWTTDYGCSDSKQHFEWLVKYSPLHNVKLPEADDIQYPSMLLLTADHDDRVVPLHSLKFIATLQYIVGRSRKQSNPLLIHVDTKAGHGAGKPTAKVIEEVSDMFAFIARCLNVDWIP
# Protocol: Prolyl oligopeptidase was purified from human platelets and the enzyme activity was measured using Z—Gly—Pro—AMC (4.4 mM) as the substrate in a K-phosphate buffer 100 mM, pH 7.5 containing 1 EM EDTA, 1 mM dithiothreitol and 1 mM NaN3. The incubation was carried out during 20 min at 37° C. The reaction was stopped by the addition of 5 volumes 1.5 M acetic acid. Fluorescence was measured at 370 and 440 nm as excitation and emission wavelengths respectively. The inhibitors were added at concentrations varying between 1 μM and 1 mM.
compound,measurement,setting,value
"CC(NC(=O)[C@@H](N)Cc1ccccc1)P(=O)(Oc1ccccc1)Oc1ccccc1 (stereo partly drawn) [Phe-AlaP(OPh)2, Diphenyl 1(R,S)-L-phenylalanyl aminoethane phosphonate]",IC50,Dipeptidyl peptidase II,800 µM
"CCOC(=O)CNC(=O)c1ccc(OP(=O)(Oc2ccc(C(=O)NCC(=O)OCC)cc2)C2CCCN2C(=O)[C@@H]2CCCN2)cc1 (mixture of isomers) [11n, Di{4-[(ethoxycarbonyl)methylaminocarbonyl]phenyl}1-((S)-prolyl)pyrrolidine-2(R,S)-phosphonate]",side effects,[1],without side effects
same,cytotoxicity,[2],did not show cytotoxicity; also recorded: no cytotoxicity
same,half-life at 1 mM,in vitro,0.583 ± 0.0333 h
same,acute systemic or local toxicity,[3]; rats,without any sign of acute systemic or local toxicity; also recorded: no acute systemic or local toxicity
"CC(=O)Nc1ccc(OP(=O)(Oc2ccc(NC(C)=O)cc2)C2CCCN2C(=O)[C@@H]2CCCN2)cc1.Cl (mixture of isomers) [11e, Di(4-acetamidophenyl) 1-((S)-prolyl)pyrrolidine-2(R,S)-phosphonate hydrochloride]",cytotoxicity,[2]; hydrochloride,no cytotoxicity; also recorded: did not show cytotoxicity
same,acute systemic or local toxicity,"[3]; rats, hydrochloride",without any sign of acute systemic or local toxicity; also recorded: no acute systemic or local toxicity
"O=C([C@@H]1CCCN1)N1CCCC1P(=O)(Oc1ccccc1)Oc1ccccc1 (mixture of isomers) [compound 5, diphenyl 1-(S)-prolyl-pyrrolidine-2-(R,S)-phosphonate]",graft acceptance,[4],significantly prolonged graft acceptance
same,half-life at 1 mM,in vitro,4.17 ± 0.167 h
same,systemic toxicity and local ulcerations,[3]; monotherapy,occasionally also caused systemic toxicity and more often local ulcerations
same,systemic toxicity,"[3]; rats, intravenously",adequate inhibition could not be reached without severe systemic toxicity
"O=C1CC[C@@H](C(=O)Nc2ccc(OP(=O)(Oc3ccc(NC(=O)[C@@H]4CCC(=O)N4)cc3)C3CCCN3C(=O)[C@@H]3CCCN3C(=O)OCc3ccccc3)cc2)N1 (mixture of isomers) [10k, Di[4-((S)-pyroglutamylamino)phenyl]-1-(benzyloxycarbonyl-(S)-prolyl)pyrrolidine-2(R,S)-phosphonate]",melting point,,170 °C (dec.)
same,IC50,Prolyl oligopeptidase,9 µM
"C[C@H](NC(=O)OCc1ccccc1)C(=O)Nc1ccc(OP(=O)(Oc2ccc(NC(=O)[C@H](C)NC(=O)OCc3ccccc3)cc2)C2CCCN2C(=O)[C@@H]2CCCN2C(=O)OCc2ccccc2)cc1 (mixture of isomers) [10j, Di[4-(N-benzyloxycarbonyl-(S)-alanylamino)phenyl]-1-(benzyloxycarbonyl-(S)-prolyl)pyrrolidine-2(R,S)-phosphonate]",melting point,,200 to 203 °C
same,IC50,Prolyl oligopeptidase,> 500 µM
"Cl.O=C([C@@H]1CCCN1)N1CCC[C@H]1P(=O)(Oc1ccccc1)Oc1ccccc1 [11a (R), Diphenyl 1-((S)-prolyl)pyrrolidine-2(R)-phosphonate hydrochloride]",cytotoxicity,[2],no satisfactory inhibition of DPP IV activity could be reached without cytotoxic effects
same,half-life at 1 mM,in vitro,5 ± 0.5 h
"CC(NC(=O)[C@@H]1CCCN1)P(=O)(Oc1ccccc1)Oc1ccccc1 (stereo partly drawn) [Pro-AlaP(OPh)2, diphenyl 1(R,S)-L-prolyl aminoethane phosphonate]",IC50,Dipeptidyl peptidase II,1500 µM
